Where two headings read alike, the source gives them in different places.
Experiments:
[1] = molecular target: T1, GIVA cPLA2 (Homo sapiens, UniProt P47712); conditions: in vitro; inhibitors previously reported; also inhibit GVIA iPLA2 and GV sPLA2; cited from earlier work
T1 sequence (P47712 1-749): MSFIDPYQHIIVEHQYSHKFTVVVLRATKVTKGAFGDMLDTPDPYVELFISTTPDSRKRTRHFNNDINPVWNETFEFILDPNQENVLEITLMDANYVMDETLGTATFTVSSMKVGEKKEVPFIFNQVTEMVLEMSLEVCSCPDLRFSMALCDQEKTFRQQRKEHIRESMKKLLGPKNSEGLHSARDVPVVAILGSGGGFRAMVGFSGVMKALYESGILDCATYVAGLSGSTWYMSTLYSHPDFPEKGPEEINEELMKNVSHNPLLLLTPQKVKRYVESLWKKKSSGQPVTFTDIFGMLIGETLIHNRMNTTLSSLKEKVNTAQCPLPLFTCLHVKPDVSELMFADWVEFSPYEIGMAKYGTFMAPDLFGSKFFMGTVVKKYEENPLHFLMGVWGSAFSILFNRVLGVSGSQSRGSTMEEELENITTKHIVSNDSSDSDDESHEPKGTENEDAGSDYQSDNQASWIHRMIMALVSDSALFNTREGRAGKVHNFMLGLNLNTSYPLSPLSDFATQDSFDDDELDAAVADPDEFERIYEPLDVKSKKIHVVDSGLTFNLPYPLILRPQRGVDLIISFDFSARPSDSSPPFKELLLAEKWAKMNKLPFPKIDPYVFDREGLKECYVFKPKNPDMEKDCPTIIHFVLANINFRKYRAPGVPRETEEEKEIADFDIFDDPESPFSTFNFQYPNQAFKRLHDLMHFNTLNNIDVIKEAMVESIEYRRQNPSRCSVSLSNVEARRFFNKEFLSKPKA

[2] = molecular target: T1, GIVA cPLA2; test: In vitro PLA2 mixed micellar assay (modified Dole assay), GIVA cPLA2; assay type: biochemical; conditions: for GIVA cPLA2 % inhibition: at 0.091 mole fraction of inhibitor, n = 3; for GIVA cPLA2 X1(50): mixed micelles, mole fraction of inhibitor in total substrate interface required to inhibit the enzyme by 50%
Method: (§1) All the inhibitors synthesized in this work were tested for inhibition of GIVA cPLA2, GVIA iPLA2 and GV sPLA2 using mixed micellar assays. Details for the assays have been published previously. The results of the inhibition are presented in Table 1 using either percent inhibition or XI(50) values. Initially, the percent inhibition of each PLA2 at 0.091 mole fraction of inhibitor was determined. XI(50) values were estimated when the percent inhibition was higher than 90%. The XI(50) is the mole fraction of the inhibitor in the total substrate interface required to inhibit the enzyme by 50%. Data for the reference 2-oxoamide inhibitors AX006 and AX048 are included in Table 1 for comparison. Phospholipase A2 activity was determined using the previously described modified Dole assay with buffer and substrate conditions optimized for each enzyme as described previously: (i) GIVA cPLA2 substrate mixed-micelles were composed of 400 μM Triton […]-labeled PAPC, and 3 μM PIP2 in buffer containing 100 mM HEPES pH 7.5, 90 μM CaCl2, 2 mM DTT and 0.1 mg/ml BSA; (ii) GVI iPLA2 substrate mixed-micelles were composed of either (a) 400 μM Triton X-100, 99 μM DPPC, and 1.5 μM ^14C-labeled DPPC in buffer containing 200 mM HEPES pH 7.0, 1 mM ATP, 2 mM DTT and 0.1 mg/ml BSA or (b) 400 μM Triton X-100, 98.3 μM PAPC, and 1.7 μM ^14C-labeled PAPC in buffer containing 100 mM HEPES pH 7.5, 2 mM ATP and 4 mM DTT; and (iii) GV sPLA2 substrate mixed-micelles were composed of 400 μM Triton X-100, 99 μM DPPC, and 1.5 μM ^14C-labeled DPPC in buffer containing 50 mM Tris pH 8.0 and 5 mM CaCl2. Initial screening of compounds at 0.091 mole fraction inhibitor in mixed-micelles was carried out. Compounds displaying 25% or less inhibition had no inhibitory affect (designated N.D.). The average percent inhibition (and standard error, n=3) for compounds displaying more than 25% and less than 90% enzyme inhibition is reported herein. If the percent inhibition was greater than 90%, then its XI(50) was determined by plotting percent inhibition vs. inhibitor molar fraction (7 points; typically 0.005 to 0.091 mole fraction). Inhibition curves were modeled in Graphpad Prism using either a linear (x, y intercept=0) or non-linear regression (one-site binding model-hyperbola, BMAX=100) to calculate the reported XI(50) and associated error values.

[3] = molecular target: T2, GV sPLA2 (Homo sapiens, UniProt P39877); test: In vitro PLA2 mixed micellar assay (modified Dole assay), GV sPLA2; assay type: biochemical; conditions: at 0.091 mole fraction of inhibitor, n = 3
T2 sequence (P39877 21-138): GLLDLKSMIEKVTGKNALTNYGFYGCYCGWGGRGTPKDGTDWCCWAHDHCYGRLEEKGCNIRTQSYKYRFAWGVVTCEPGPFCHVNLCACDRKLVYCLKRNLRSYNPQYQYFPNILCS
Method: as §1

[4] = tested on: RAW 264.7 macrophages; test: Inhibition of Kdo2-Lipid A stimulated arachidonic acid release; assay type: cell-based; conditions: for inhibition at 25 µM / IC50: Mus musculus; for inhibition at 25 µM: RAW264.7, 25 μM inhibitor preincubated, Kdo2-Lipid A stimulation, read-out: AA Release Inhibition (%); for IC50: RAW264.7, RAW 264.7 cells, half maximal of the maximum inhibition observed
Excerpt: Arachidonic acid (AA) is the ideal metabolic indicator of GIVA cPLA2 activity, since it is the product of GIVA cPLA2-mediated catalysis. In addition to some of the new 2-oxoamides based on dipeptides and pseudodipeptides that were synthesized in this work, a series of potent 2-oxoamide in vitro inhibitors of GIVA cPLA2, previously reported by us, were further tested in a cellular ex vivo system to investigate whether they reduced cellular AA production. For this purpose, RAW 264.7 macrophages were preincubated with 25 μM concentrations of the inhibitor prior to treatment of the cells with Kdo2-Lipid A. Subsequently, AA release was quantitated from the supernatants.
RAW 264.7 macrophages were maintained in a humidified atmosphere at 37° C. with 5% CO2, as described elsewhere.^36 The cells were cultured in DMEM media that was supplemented with 10% fetal bovine serum, 2 mM glutamine, 100 units/mL penicillin, 100 μg/ml streptomycin, and non-essential amino acids. The cells were plated at a confluency of 2×10^6 cells per well in 6 well tissue culture plates and allowed to adhere overnight. Inhibitors were added to the medium 30 min before Kdo2-Lipid A was added and the supernatants were collected at 1 hour following stimulation. Subsequently, AA was extracted from the supernatants and quantitated by HPLC-MS, as described elsewhere.^36, 37 AA release levels were normalized to pmol AA release per million cells though DNA quantitation using the Broad Range DNA Quant-Kit (Invitrogen). IC50 values were determined by estimating the concentration of inhibitor required for half maximal inhibition of the maximum inhibition observed with a given inhibitor.

Row | SMILES | Inhibition of GIVA cPLA2 (in words) [1] | GV sPLA2 % inhibition [3] [%] | melting point [°C] | GIVA cPLA2 X1(50) [2] [mole fraction] | other results
1 | CCOC(=O)CCCNC(=O)C(=O)CC [Compound 24] | inhibit GIVA cPLA2 to a high extent, though not selectively |  |  |  | 
2 | CCNC(=O)OC[C@@H](CCC(=O)OC)NC(=O)C(=O)CC [Compound 23] | inhibit GIVA cPLA2 to a high extent, though not selectively |  |  |  | 
3 | CCCCCCCCCCCCCCC(=O)C(=O)N[C@@H](CCCC)COCC(=O)OC(C)(C)C [Compound 17, (S)-tert-Butyl 2-(2-(2-oxohexadecanamido)hexyloxy)acetate] |  | 57 |  |  | GIVA cPLA2 % inhibition [2]: 44%
4 | CCC[C@@H](/C=C/C=C/C(=O)O)NC(=O)C(=O)CC [Compound 28] |  |  |  |  | inhibition at 25 µM ([4]; RAW 264.7 macrophages): 6 ± 10%
5 | CCCCCCCCCCCCCCC(=O)C(=O)N[C@@H](CCCC)C(=O)NCC(=O)OCC [Compound 4c, (S)-Ethyl 2-(2-(2-oxohexadecanamido)hexanamido)acetate] |  | 63 | 63 to 65 |  | GIVA cPLA2 % inhibition [2]: 73%
6 | CCCCCCCCCCCCCCC(=O)C(=O)N[C@@H](CCCC)C(=O)NCC(=O)OC [Compound 4a, (S)-Methyl 2-(2-(2-oxohexadecanamido)hexanamido)acetate] |  | 65 | 65 to 67 | 0.021 ± 0.009 | 
7 | CCCCCCCCCCCCCCC(=O)C(=O)N[C@@H](CCCC)C(=O)NCC(=O)O [Compound 9a, (S)-2-(2-(2-Oxohexadecanamido)hexanamido)acetic Acid] |  |  |  | 0.035 ± 0.014 | inhibition at 0.091 mole fraction [3]: < 25%
8 | CCC[C@@H](/C=C/C(=O)O)NC(=O)C(=O)CC [Compound 30] |  |  |  |  | Effect on AA release (in words) ([4]; 25 μM inhibitor, Kdo2-Lipid A, RAW 264.7 macrophages): significant reduction of AA release; IC50 ([4]; Kdo2-Lipid A, read-out: IC50 for the inhibition of arachidonic acid release): 25 µM; IC50 ([4]; Kdo2-Lipid A, read-out: IC50 for the inhibition of arachidonic acid release (text)): ~25 µM; inhibition at 25 µM ([4]; RAW 264.7 macrophages): 74 ± 8%
9 | CCCCCCCCCCCCCCC(=O)C(=O)N[C@H](C(=O)NCC(=O)O)C(C)C [Compound 9b, (S)-2-(3-Methyl-2-(2-oxohexadecanamido)butanamido)acetic Acid] |  |  | 87 to 89 | 0.061 ± 0.017 | inhibition at 0.091 mole fraction [3]: < 25%
10 | CCC[C@@H](CCC(=O)OC)NC(=O)C(=O)CC [Compound 27] | inhibit GIVA cPLA2 to a high extent, though not selectively |  |  |  | 

Reference: US8580852B2, “2-oxamide inhibitors of phospholipase A2 activity and cellular arachidonate release based on dipeptides and pseudopeptides” (The Regents of the University of California, priority 2009, dated 2013)
